Data set [1] can be described thus: Pharmacokinetic assay in mice (plasma and colon exposure). Conditions: mouse, fed female C57 mice, 25 mg/kg PO, 4 hours after dosing. Format: in vivo. On the procedure:
Test compounds were formulated into a 5 mg/mL dosing sample (suspension or solution) in a 20% HP-β-CD vehicle.
3 fed female C57 mice were each dosed 5 mL/kg by gavage (PO) at a dose of 25 mg/kg. Blood samples were collected 4 hours after dosing, and then animals were killed by CO2. Colons near the end of the rectum, approximately 4-6 cm in length, were dissected, rinsed with cold saline, blotted dry with absorbent paper, and weighed.
Concentrations of the test compounds in the plasma and intestinal homogenate sample were quantified by LC-MS/MS using an API-4500 mass spectrometer with a plasma limit of quantitation (LOQ) of 1 ng/mL.

Data set [2] addresses human recombinant TYK2 protein (Homo sapiens, UniProt P29597). The data set can be described thus: TYK2 activity inhibition assay (HTRF kinase detection). The format is biochemical. Conditions: 11.25 μM ATP substrate solution. The gist of the method:
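Compound preincubated 15 min at RT with TYK2 (0.25 ng/μL working solution), then substrate mix (11.25 μM ATP, 0.5 μM biotin-tyrosine kinase substrate as prepared) added for 40 min at RT. HTRF detection with Eu-antibody/streptavidin-XL665 read as 665/620 nm ratio. No-enzyme wells define 100% inhibition; IC50 from curve fit.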
In general terms: In TR-FRET formats the signal depends on donor and acceptor labels being close together.

Data set [3] relates to IL-12-induced IFN-γ secretion in NK92 cells. Put plainly: Inhibition of IL-12-induced IFN-γ secretion in NK92 cells (ELISA). The format is cell-based. The following applies: Homo sapiens, IL-12 stimulation, 24 hours, read-out: IC50 (NK92IL12/IFN-γ). How it is done:
The effect of the compounds of the present invention on IFN-γ secretion in IL-12-induced NK92 cells was evaluated by an enzyme-linked immunosorbent assay (ELISA).
The assay principle was generally described below: IL-12R was mainly expressed in activated T-cells, NK cells (NK92 was an NK cell line), DC cells, and B-cells. When binding to IL-12, it activated the JAK2/TYK2 signal transduction pathway within NK cells and activated T lymphocytes, thereby inducing secretion of IFN-γ.
The compound was dissolved to 2.5 mM in DMSO, followed by a serial 4-fold dilution with DMSO to a minimum concentration of 0.31 μM. Each concentration was further diluted 50-fold with an FBS-free MEMα medium (Thermofisher. 12561-056).
NK92 cells (Nanjing Cobioer, CBP60980) were cultured in a complete MEMα medium containing 12.5% FBS (Ausbian, VS500T), 12.5% horse serum (Thermofisher, 16050-122), 0.02 mM folic acid (Sigma, F8758), 0.2 mM inositol (Sigma, 17850), 0.55 mM β-mercaptoethanol (Thermofish, 21985-023), 200 U/mL IL-2 (R&D Systems, 202-1L), and 100 U/mL penicillin-streptomycin mixed liquor (ThermoFisher, 15140122). When covering 80-90% of the culture container surface, the cells were dispersed and plated on a 96-well plate (ThermoFisher, 167425) with 100,000 cells per well (80 μL of the complete MEMα medium without IL-2). The 96-well plate was then incubated overnight in a 37° C., 5% CO2 incubator.
After overnight incubation, 10 μL of the compound and 10 μL of 50 ng/ml IL-12 (R &D Systems, 219-1L) were added to each well and mixed gently, and the 96-well plate was incubated in the 37° C., 5% CO2 incubator for additional 24 hours. The plate was centrifuged at 800 rpm for 10 minutes at room temperature and 50 μL of the supernatant from each well was transferred to another 96-well plate (Sigma, CLS3695) coated with anti-IFN-γ antibody. The amount of IFN-γ secretion was detected following the instruction from the Human IFN-γ DuoSet ELISA assay kit (R & D Systems, DY285B). In this assay, the group in which IL-12 and the test compound were replaced with the MEMα medium was the non-stimulated control group (100% inhibition), and the group with IL-12 and 0.2% DMSO was the stimulated control group (0% inhibition). The compound inhibition curve was plotted using XLfit software and the IC50 of its inhibition was calculated.
In general terms: ELISA stands for enzyme-linked immunosorbent assay.

Data set [4] addresses human recombinant JAK2 protein (Homo sapiens, UniProt O60674). Put plainly: JAK2 activity inhibition assay (HTRF kinase detection). Format: biochemical. The following applies: 2.5 μM ATP substrate solution. The gist of the method:
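Human recombinant JAK2 (0.15 ng/μL working solution) preincubated with compound 15 min RT, then reacted 30 min RT with 2.5 μM ATP and 0.25 μM biotin-tyrosine peptide (substrate-mix levels) in buffer with 5 mM MgCl2, 1 mM DTT, 0.01% Brij35. HTRF 665/620 ratio read; no-enzyme wells = 100% inhibition; IC50 from curve fit.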

[5] abbreviates: colon homogenate, read-out: Colon exposure.
Setting [6] is: plasma, LOQ 1 ng/mL, read-out: Plasma exposure.

The record followed here is patent publication US20240246984A1, “HETEROCYCLIC JAK INHIBITOR” (BEIJING INNOCARE PHARMA TECH CO., LTD., priority 2020, published 2024).

Where two headings read alike, the source gives them in different places.

Consider `O=C(c1ccc(Nc2nc(-c3c(F)cccc3F)n3cc[nH]c(=O)c23)cc1)N1CCOCC1` [Compound 1, 3-(2,6-difluorophenyl)-1-((4-(morpholine-4-carbonyl)phenyl)amino)imidazo[1,5-a]pyrazin-8(7H)-one], for which the concentration at 4 h in data set [1] (setting [5]) worked out at 5210 ng/g; in data set [1] (setting [6]) it was 249 ng/mL. The IC50 in data set [2] was 0.2 nM; in data set [3] it was 57 nM; in data set [4], 0.3 nM.
As to `NC(=O)c1ccc(Nc2nc(-c3c(F)cccc3Cl)n3cc[nH]c(=O)c23)cc1` [Compound 28, 4-((3-(2-chloro-6-fluorophenyl)-8-oxo-7,8-dihydroimidazo[1,5-a]pyrazin-1-yl)amino)benzamide], the concentration at 4 h in data set [1] (setting [5]) amounted to 2850 ng/g; in data set [1] (setting [6]), 15 ng/mL. Besides, the IC50 in data set [2] stood at 0.03 nM; in data set [3] it was 38 nM; in data set [4], 0.6 nM.
`CC(C)(C(=O)N1CCNCC1)c1ccc(Nc2nc(-c3c(F)cccc3F)n3cc[nH]c(=O)c23)cc1` [Compound 36, 3-(2,6-difluorophenyl)-1-((4-(2-methyl-1-oxo-1-(piperazin-1-yl)propan-2-yl)phenyl)amino)imidazo[1,5-a]pyrazin-8(7H)-one]: the figures for the concentration at 4 h in data set [1] (setting [5]) and in data set [1] (setting [6]) were 5090 ng/g and 18 ng/mL, respectively. Moreover, the results for the IC50 in data set [2], in data set [3] and in data set [4] were 0.4 nM, 3480 nM and 0.6 nM, respectively.
Taken in the same sequence, the figures for `CC(C)(C(N)=O)c1ccc(Nc2nc(-c3c(F)cccc3F)n3cc[nH]c(=O)c23)cc1` [Compound 34, 2-(4-((3-(2,6-difluorophenyl)-8-oxo-7,8-dihydroimidazo[1,5-a]pyrazin-1-yl)amino)phenyl)-2-methylpropanamide] were 2700 ng/g, 50 ng/mL, 0.1 nM, 65 nM and 0.6 nM.
